Results on two compounds are retold here after PubChem BioAssay (NCI).

Some test systems named below: HCT-116 colon; K-562 leukemia; MOLT-4 leukemia; U251 CNS; ACHN renal; CAKI-1 renal; CCRF-CEM leukemia; DU-145 prostate; HS 578T breast; MDA-MB-231 breast; NCI-H226 lung; OVCAR-5 ovarian; SF-539 CNS; T-47D breast; UACC-62 melanoma.
Experiment in all cases: inhibition of tumour cell growth, NCI panel, 48 h

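In this assay, cells in 96-well plates receive the compound at five concentrations for 48 hours. Endpoints are linearly interpolated between the surrounding concentrations. GI50 is the concentration that inhibits growth by half. At the TGI there is no net growth.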

Take `Cc1ccc(C2CC3(c4ccccc4)ON=C(c4ccccc4)N3c3ccccc3S2)cc1` (stereo unspecified): the GI50 with HCT-116 colon is 8.08 µM; with K-562 leukemia, 38.5 µM; in the assay with MOLT-4 leukemia, 38.9 µM; with U251 CNS, 20.6 µM.

With `C[C@@H](Nc1nc(Nc2ccc(F)c(Cl)c2)nc2c(C3=CCNCC3)cccc12)C1CC1`, the GI50 is 1810 nM in the assay with ACHN renal; 1580 nM in the assay with CAKI-1 renal; 2210 nM in the assay with CCRF-CEM leukemia; 1640 nM in the assay with DU-145 prostate; 1990 nM in the assay on HS 578T breast; 1720 nM with MDA-MB-231 breast. The GI50 was 2310 nM with NCI-H226 lung; 1530 nM with OVCAR-5 ovarian; 1680 nM in the assay on SF-539 CNS; 1910 nM in the assay on T-47D breast; 1820 nM in the assay on UACC-62 melanoma. Also, the TGI is 3.32 µM in the assay on ACHN renal; 2990 nM in the assay on CAKI-1 renal; 5.54 µM in the assay with CCRF-CEM leukemia; 3.04 µM in the assay with DU-145 prostate; 4.82 µM in the assay with HS 578T breast; 3.28 µM in the assay with MDA-MB-231 breast. The TGI with NCI-H226 lung is 5.03 µM; with OVCAR-5 ovarian, 3.25 µM; in the assay with SF-539 CNS it was 3.17 µM; in the assay with T-47D breast it was 4.38 µM; in the assay on UACC-62 melanoma, 3.36 µM.
